Test results published in ChEMBL document CHEMBL1139251, “Urea based CCR3 antagonists employing a tetrahydro-1,3-oxazin-2-one spacer” (Bioorg Med Chem Lett, 2009).

Key:
Cytochrome P450 2D6 = Cytochrome P450 2D6 (Homo sapiens, UniProt P10635); assay: Inhibition of CYP2D6; type: ADME
Eosinophil = assay: Induction of shape change in human eosinophils by flow cytometry; type: functional, cell-based
[1] = target: T1, C-C chemokine receptor type 3 (Homo sapiens, UniProt P51677); assay: Binding affinity to CCR3 receptor
T1 sequence (P51677 whole entry): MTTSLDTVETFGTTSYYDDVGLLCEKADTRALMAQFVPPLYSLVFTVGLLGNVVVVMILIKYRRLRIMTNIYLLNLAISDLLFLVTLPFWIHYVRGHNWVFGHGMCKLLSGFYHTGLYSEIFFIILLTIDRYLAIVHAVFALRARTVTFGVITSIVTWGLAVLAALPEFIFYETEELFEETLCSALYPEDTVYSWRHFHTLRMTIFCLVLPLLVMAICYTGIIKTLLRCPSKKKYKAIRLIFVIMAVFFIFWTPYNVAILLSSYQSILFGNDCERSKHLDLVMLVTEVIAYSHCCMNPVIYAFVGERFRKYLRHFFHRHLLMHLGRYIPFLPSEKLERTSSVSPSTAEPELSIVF

[2] = target: Voltage-gated inwardly rectifying potassium channel KCNH2 (Homo sapiens, UniProt Q12809); assay: Inhibition of human ERG by calcium-flux based assay
Voltage-gated inwardly rectifying potassium channel KCNH2, sequence (Q12809 whole entry): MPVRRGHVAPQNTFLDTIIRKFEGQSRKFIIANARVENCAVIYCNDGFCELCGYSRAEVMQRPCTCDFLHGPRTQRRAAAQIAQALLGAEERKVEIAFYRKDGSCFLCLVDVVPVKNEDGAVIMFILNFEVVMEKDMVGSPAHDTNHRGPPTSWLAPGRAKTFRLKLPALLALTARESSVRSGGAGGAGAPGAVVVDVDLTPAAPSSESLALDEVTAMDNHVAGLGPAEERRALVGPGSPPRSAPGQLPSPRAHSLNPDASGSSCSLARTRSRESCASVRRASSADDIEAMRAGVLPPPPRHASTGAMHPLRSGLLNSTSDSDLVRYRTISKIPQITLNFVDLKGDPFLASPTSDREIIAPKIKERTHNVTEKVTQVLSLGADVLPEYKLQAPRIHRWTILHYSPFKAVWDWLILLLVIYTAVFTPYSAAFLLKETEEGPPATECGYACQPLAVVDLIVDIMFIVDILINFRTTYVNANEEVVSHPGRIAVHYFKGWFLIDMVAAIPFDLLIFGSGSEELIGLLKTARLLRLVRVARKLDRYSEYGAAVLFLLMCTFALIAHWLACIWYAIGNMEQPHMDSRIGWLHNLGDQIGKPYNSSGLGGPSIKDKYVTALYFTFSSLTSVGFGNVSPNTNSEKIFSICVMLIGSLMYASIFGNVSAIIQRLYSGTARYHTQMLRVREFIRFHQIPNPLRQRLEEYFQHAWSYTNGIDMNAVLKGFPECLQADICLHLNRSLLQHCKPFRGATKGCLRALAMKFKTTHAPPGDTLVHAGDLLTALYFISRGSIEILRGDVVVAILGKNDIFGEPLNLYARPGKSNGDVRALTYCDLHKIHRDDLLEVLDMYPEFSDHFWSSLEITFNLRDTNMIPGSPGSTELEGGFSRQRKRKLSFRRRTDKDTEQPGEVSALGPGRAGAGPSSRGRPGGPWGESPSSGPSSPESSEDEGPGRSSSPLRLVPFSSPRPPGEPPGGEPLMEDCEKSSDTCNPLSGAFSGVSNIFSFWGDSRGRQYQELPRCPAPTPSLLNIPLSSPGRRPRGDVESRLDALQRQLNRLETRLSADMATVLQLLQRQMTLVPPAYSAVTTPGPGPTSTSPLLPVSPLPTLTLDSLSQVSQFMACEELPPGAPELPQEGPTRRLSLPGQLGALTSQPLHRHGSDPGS

Liver microsomes = assay: Metabolic stability in human liver microsomes; type: ADME, Microsome

Cytochrome P450 2D6, sequence (P10635 whole entry): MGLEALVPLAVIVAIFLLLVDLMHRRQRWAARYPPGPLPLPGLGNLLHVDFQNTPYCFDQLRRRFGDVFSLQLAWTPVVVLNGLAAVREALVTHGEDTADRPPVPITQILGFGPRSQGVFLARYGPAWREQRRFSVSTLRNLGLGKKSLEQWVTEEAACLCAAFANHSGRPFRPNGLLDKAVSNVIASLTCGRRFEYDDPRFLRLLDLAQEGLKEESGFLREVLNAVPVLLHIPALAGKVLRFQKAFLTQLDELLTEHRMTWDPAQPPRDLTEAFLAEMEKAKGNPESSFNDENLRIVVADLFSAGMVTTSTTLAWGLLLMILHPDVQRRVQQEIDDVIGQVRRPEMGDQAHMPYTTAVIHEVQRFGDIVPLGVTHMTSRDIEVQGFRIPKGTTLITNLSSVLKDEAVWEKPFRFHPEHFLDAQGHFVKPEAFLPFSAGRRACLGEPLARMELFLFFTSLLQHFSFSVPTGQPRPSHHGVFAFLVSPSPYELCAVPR

Structure (SMILES)	IC50 (Eosinophil; Homo sapiens, Eosinophil) [nM]	IC50 (Cytochrome P450 2D6) [nM]	IC50 [1] [nM]	further results
C[C@@H](NC(=O)Nc1cccc(-c2nnnn2C)c1)[C@@H](O)CN1CCC[C@@H](Cc2ccc(F)cc2)C1	0.038			Ki (Cytochrome P450 2D6): 2600 nM
CN1C[C@@H](NC(=O)Nc2cccc(-c3nnnn3C)c2)[C@H](CN2CCC[C@@H](Cc3ccc(F)cc3)C2)OC1=O		4300	0.23	
CN1C[C@@H](NC(=O)Nc2cccc(-c3nnnn3C)c2)[C@H](CN(CCCc2ccc(F)cc2)C2CC2)OC1=O	2.2		2.1	
CCCN(CCCc1ccc(F)cc1)C[C@@H]1OC(=O)N(C)C[C@H]1NC(=O)Nc1nc(C)cs1			9.2	
CC(=O)c1sc(NC(=O)NC2(C)CN(C)C(=O)OC2CN2CCC[C@@H](Cc3ccc(F)cc3)C2)nc1C (mixture of isomers)		21000	1.1	
CN1CC(C)(NC(=O)Nc2cccc(-c3nnnn3C)c2)C(CN2CCC[C@@H](Cc3ccc(F)cc3)C2)OC1=O (mixture of isomers; 19a)		33000	0.12	IC50 (Eosinophil; eosinophil): 2.4 nM
CN1CC(C)(NC(=O)Nc2cccc(-c3nnnn3C)c2)C(CN2CCC[C@@H](Cc3ccc(F)cc3)C2)OC1=O.Cl (mixture of isomers; 19b)		17000	0.15	IC50 [2]: 15700 nM; IC50 (Eosinophil; eosinophil): 0.13 nM; Stability (Liver microsomes): Unstable
Cc1csc(NC(=O)NC2(C)CN(C)C(=O)OC2CN2CCC[C@@H](Cc3ccc(F)cc3)C2)n1 (mixture of isomers; 20a)			5.4	
Cc1csc(NC(=O)NC2(C)CN(C)C(=O)OC2CN2CCC[C@@H](Cc3ccc(F)cc3)C2)n1 (mixture of isomers; 20b)	3.4	2100	0.37	
CN1CC(C)(NC(=O)Nc2nc(C(C)(C)C)cs2)C(CN2CCC[C@@H](Cc3ccc(F)cc3)C2)OC1=O (mixture of isomers; 22a)			44	
CN1CC(C)(NC(=O)Nc2nc(C(C)(C)C)cs2)C(CN2CCC[C@@H](Cc3ccc(F)cc3)C2)OC1=O (mixture of isomers; 22b)		40000	5.5	
CCN(CCCc1ccc(F)cc1)CC1OC(=O)N(C)CC1(C)NC(=O)Nc1cccc(-c2nnnn2C)c1 (mixture of isomers; 23a)		5900	0.18	IC50 (Eosinophil; eosinophil): 4.4 nM
CCN(CCCc1ccc(F)cc1)CC1OC(=O)N(C)CC1(C)NC(=O)Nc1cccc(-c2nnnn2C)c1 (mixture of isomers; 23b)	> 3	14000	0.47	
